Assays:
CDK1/Cyclin B = molecular target: T1, CDK1/Cyclin B (Homo sapiens, UniProt P06493); assay: Enzymatic assay for CDK1 (FRET based LANCE Ultra kinase assay); type: biochemical; settings: read-out: CDK1 enzymatic activity (IC50 range)
T1 construct: purchased Invitrogen PR4768C
In short: (§1)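 LANCE Ultra TR-FRET: ULight-MBP peptide (68 nM) with ATP at Km, […], 60 min at 23° C. EDTA plus Eu-anti-phospho-MBP added, another 60 min, then 665/615 nm emission read. Compounds tested as 8-dose 4-fold DMSO dilutions.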

CDK2/Cyclin A = molecular target: T2, CDK2/Cyclin A (Homo sapiens, UniProt P24941); assay: Enzymatic assay for CDK2 (FRET based LANCE Ultra kinase assay); type: biochemical; settings: read-out: CDK2 enzymatic activity (IC50 range)
T2 construct: purchased Invitrogen PV6290
In short: as §1

CDK5/p25 = molecular target: T3, CDK5/p25 (Homo sapiens, UniProt Q00535); assay: Enzymatic assay for CDK5 (FRET based LANCE Ultra kinase assay); type: biochemical; settings: read-out: CDK5 enzymatic activity (IC50 range)
T3 construct: purchased Invitrogen PR8543B
In short: as §1

CDK7/Cyclin H/MNAT1 = molecular target: T4, CDK7/Cyclin H/MNAT1 (Homo sapiens, UniProt P50613); assay: Enzymatic assay for CDK7 (FRET based LANCE Ultra kinase assay); type: biochemical
T4 construct: purchased Invitrogen PR6749B
In short: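 Inhibition was measured at Km ATP by time-resolved FRET between a Eu anti-phospho antibody and a phosphorylated ULight peptide. The enzyme was the purified CDK7/cyclin complex, and data were curve-fitted.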

H460 = assay: Cellular H460 viability assay (CellTiter-Glo, 72 hours); type: cell-based; settings: Homo sapiens, NCI-H460
In short: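 Luminescent ATP read-out (CellTiter-Glo) after 72 h compound exposure at 37 °C/5% CO2; duplicate wells; vehicle control DMSO <0.1% final; seeding density set per cell line.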

OVCAR-3 = assay: Cellular OVCAR-3 viability assay (CellTiter-Glo, 72 hours); type: cell-based; settings: Homo sapiens
Excerpt: Human T-cell acute lymphoblastic leukemia cell line, MOLT-4 (ATCC, Cat #CRL-1582), Human multiple myeloma cell line, RPMI-8226 (Invitrogen, Cat #22400-089) and MM.1S (ATCC, Cat #CRL-2974), NSCLC (Non-small cell lung cancer) cell line H460 (ATCC, Cat #HTB-177), Human colon colorectal carcinoma cell line HCT116 (ATCC, Cat #CCL-247), Human acute monocytic leukemia cell line MV4-11 (ATCC, Cat #CRL-9591), OVCAR-3 (ATCC, Cat #HTB-161) and A2780 (ECACC, Cat #93112519) were obtained from ATCC. Cells were grown in RPMI-1640 media (Invitrogen, Cat #22400-089) supplemented with 10% FBS (Invitrogen, Cat #10099141) and 1% penicillin/streptomycin (Invitrogen, Cat #15070063) and cultured at 37° C., 5% CO2 in a humidified chamber. All cell lines were routinely tested for mycoplasma.
The effect of the CDK7 inhibitor to inhibit the growth of target cancer cells was evaluated through the 72 hours time period of viability assay. Briefly, the candidate cell line ware plated in 96 well plate at the following density of cells respectively. 1×10^4 cells/well for MOLT-4, RPMI-8226, MV4-11 and MM.1S, 5×10^3 for H460, HCT116 and OVCAR-3 and IX 10^3 for A2780. After 24 hours, the cells were treated with various concentrations of the compound (ranging from 0.0015 uM to 10 uM). DMSO solvent without compound served as a control and final DMSO concentration less than 0.1%. After 72 hours of incubation at 37° C., 5% CO2 incubator, cells were analyzed for the viability using the CellTiter-Glo Luminescent Cell Viability Assay (Promega, Cat #G7570). All viability assays were performed in duplicate and Luminescence was read using an Envision (Perkin Elmer, USA). Data was analyzed using XLfit software.

T4 sequence (P50613 whole entry): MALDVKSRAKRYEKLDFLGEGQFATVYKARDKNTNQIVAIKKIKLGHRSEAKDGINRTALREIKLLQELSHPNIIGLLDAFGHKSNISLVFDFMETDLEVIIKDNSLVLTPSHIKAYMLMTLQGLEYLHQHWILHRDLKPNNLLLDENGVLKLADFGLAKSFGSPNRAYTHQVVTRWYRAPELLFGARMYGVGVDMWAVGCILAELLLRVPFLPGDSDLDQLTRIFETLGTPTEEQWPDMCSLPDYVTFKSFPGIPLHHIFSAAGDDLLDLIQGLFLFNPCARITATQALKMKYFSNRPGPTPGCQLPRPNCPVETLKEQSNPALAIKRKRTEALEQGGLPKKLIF
T4 sequence (P51946 whole entry partner): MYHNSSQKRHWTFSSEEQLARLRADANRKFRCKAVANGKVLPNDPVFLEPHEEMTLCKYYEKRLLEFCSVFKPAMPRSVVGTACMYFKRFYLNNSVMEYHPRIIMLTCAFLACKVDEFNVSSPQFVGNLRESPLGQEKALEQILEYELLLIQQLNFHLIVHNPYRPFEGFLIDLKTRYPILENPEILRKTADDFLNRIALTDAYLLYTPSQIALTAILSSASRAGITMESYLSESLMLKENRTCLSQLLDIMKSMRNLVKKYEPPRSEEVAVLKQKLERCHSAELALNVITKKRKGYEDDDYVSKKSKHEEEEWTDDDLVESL
T4 sequence (P51948 whole entry partner): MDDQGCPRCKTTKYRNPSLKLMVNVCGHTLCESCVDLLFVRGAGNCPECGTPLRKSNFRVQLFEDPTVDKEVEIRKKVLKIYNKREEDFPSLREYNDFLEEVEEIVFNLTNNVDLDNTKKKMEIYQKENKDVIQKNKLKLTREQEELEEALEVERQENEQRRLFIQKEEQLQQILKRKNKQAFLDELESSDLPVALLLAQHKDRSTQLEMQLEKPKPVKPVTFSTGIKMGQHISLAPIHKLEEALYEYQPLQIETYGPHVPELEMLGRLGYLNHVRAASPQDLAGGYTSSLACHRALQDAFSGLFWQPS
T1 sequence (P06493 whole entry): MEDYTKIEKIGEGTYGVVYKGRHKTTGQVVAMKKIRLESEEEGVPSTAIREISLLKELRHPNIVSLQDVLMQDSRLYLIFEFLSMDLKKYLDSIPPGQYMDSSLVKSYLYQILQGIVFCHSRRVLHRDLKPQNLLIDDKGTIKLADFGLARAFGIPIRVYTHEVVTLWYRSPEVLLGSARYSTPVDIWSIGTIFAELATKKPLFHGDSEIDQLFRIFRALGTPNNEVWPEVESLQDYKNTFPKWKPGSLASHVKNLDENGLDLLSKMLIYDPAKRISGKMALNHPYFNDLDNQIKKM
T1 sequence (P14635 whole entry partner): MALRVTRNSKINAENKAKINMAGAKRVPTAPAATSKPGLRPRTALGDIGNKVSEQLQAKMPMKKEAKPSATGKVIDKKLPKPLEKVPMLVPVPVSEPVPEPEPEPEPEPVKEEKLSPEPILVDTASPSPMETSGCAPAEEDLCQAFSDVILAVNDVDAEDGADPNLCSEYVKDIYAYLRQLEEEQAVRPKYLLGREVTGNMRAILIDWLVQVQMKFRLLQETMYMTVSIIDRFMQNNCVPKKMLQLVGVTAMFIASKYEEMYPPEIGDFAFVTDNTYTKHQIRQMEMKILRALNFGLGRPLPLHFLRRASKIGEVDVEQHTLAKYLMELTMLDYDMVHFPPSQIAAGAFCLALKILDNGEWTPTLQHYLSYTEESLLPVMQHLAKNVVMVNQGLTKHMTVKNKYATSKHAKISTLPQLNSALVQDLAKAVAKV
T3 sequence (Q00535 whole entry): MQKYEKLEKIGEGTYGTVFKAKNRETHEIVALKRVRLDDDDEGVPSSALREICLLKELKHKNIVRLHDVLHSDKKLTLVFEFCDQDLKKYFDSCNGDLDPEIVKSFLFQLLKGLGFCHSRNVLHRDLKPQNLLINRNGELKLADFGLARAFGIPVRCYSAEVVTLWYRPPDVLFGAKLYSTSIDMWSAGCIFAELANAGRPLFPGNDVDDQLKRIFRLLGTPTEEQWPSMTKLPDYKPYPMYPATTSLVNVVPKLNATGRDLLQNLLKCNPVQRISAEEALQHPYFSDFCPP
T3 sequence (Q15078 99-307 partner limits assumed): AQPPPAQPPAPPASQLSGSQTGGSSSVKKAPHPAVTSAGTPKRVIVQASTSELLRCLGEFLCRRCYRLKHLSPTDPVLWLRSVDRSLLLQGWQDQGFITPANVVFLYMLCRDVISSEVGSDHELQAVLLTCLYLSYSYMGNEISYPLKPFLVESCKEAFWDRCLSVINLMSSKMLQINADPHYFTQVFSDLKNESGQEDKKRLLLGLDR

In the case of CC(C)c1cnn2c(NCc3c(Cl)cccc3-n3ccc(C(C)(C)O)n3)nc(N3CCC(N)CC3)nc12 [Compound 210], the IC50 (CDK1/Cyclin B) is reported as over 1000 nM, the IC50 (CDK2/Cyclin A) is reported as over 1000 nM and the IC50 (CDK5/p25) is reported as 100 to 1000 nM. The “CDK1/CDK7: Selectivity of CDK7 inhibition over CDK1 inhibition” value (CDK7/Cyclin H/MNAT1; CDK7 over CDK1) was “A (A=greater than 200 fold)”, the “CDK2/CDK7: Selectivity of CDK7 inhibition over CDK2 inhibition” value (CDK7/Cyclin H/MNAT1; CDK7 over CDK2) was “A (A=greater than 200 fold)” and the “CDK5/CDK7: Selectivity of CDK7 inhibition over CDK5 inhibition” value (CDK7/Cyclin H/MNAT1; CDK7 over CDK5) was “A (A=greater than 200 fold)”. It also gave an IC50 (CDK7/Cyclin H/MNAT1; read-out: CDK7 enzymatic activity (IC50 range)) of under 100 nM, an IC50 (H460) of under 1000 nM and an IC50 (OVCAR-3) of at most 1000 nM.
